In brackets after ≈: the same amount, converted by molar mass.
Columns and labels:
[1] = Apparent solubility in phosphate buffer at pH 7.4; type: physicochemical; details: aqueous buffer, kinetic from dmso stock, phosphate buffer pH 7.4, 25° C.
Description: The compounds to be tested were prepared according to the method described. The control drug progesterone was purchased from Sigma. Phosphate buffer with pH 7.4 was prepared in our laboratory. Acetonitrile and methanol were purchased from Fisher. Other reagents were purchased from the market.
10 mM stock solution of substance to be tested and control drug progesterone was prepared with DMSO.
30 µL of 10 mM stock solution of substance to be tested was taken, and added to the corresponding position of the corresponding 96-well plate in the specified order. 970 µL of phosphate buffer (pH 7.4) was added to the corresponding vial in the sample plate. The experiment was performed in parallel duplicate. A stirring rod was added to each vial and a polytetrafluoroethylene/silicone stopper was covered thereon. The sample tray was then placed in an Eppendorf Thermomixer Comfort and shaken at 1100 rpm for 2 hours at 25° C. After 2 hours, the stopper was removed, and the stirring rod was sucked away by a large magnet, then the sample was transferred from the sample plate to the filter plate. A vacuum pump was used to generate negative pressure and the sample was filtered. 5 µL of the filtrate was transferred to a new sample plate, and then 5 µL of DMSO and 490 µL of 50% ACN(IS).H2O (internal standard acetonitrile : water = 1 : 1) were added. Depending on the peak shape, it may be possible to dilute the sample diluent with a certain proportion of 50% ACN(IS).H2O for better peak shape. […]
The loading plate was placed in the loading tray of the autosampler, and the sample was evaluated by liquid chromatography-mass spectrometry analysis.
All calculations are performed via Microsoft Excel. Analysis and quantification of the sample filtrate was accomplished by using the liquid chromatography-mass spectrometry to characterize and quantify the peaks of the standards with known concentrations. The apparent solubility of the compounds of the present invention in phosphate buffer (PH 7.4) was calculated.

[2] = Plasma protein binding rate, equilibrium dialysis, monkey plasma; type: in vitro ADME; details: pH 7.4, Cynomolgus monkey plasma, 6 hours dialysis
Description: The protein binding rate of the compounds of the present invention in the plasma of five species (human, monkey, dog, rat and mouse) was determined by the following test method.
• 1. Human plasma (BioIVT), beagle dog plasma (BioIVT), SD rat plasma (BioIVT), CD-1 mouse plasma (BioIVT); • 2. 96-well equilibrium dialysis plate (HTDialysis LLC, Gales Ferry, CT, HTD96B), equilibrium dialysis membrane (MWCO 12-14 K, #1101); • 3. Positive control compound warfarin; • 4. ABI QTrap 5500 liquid chromatography-mass spectrometry.
1. Preparation of a buffer with a concentration of 100 mM sodium phosphate and 150 mM NaCl: an alkaline solution with a concentration of 14.2 g/L Na2HPO4 and 8.77 g/L NaCl was prepared with ultrapure water, and an acidic solution with a concentration of 12.0 g/L NaH2PO4 and 8.77 g/L NaCl was prepared with ultrapure water. The alkaline solution was titrated with the acidic solution to pH 7.4 to prepare a buffer with a concentration of 100 mM sodium phosphate and 150 mM NaCl.
2. Preparation of dialysis membrane: the dialysis membrane was soaked in ultrapure water for 60 minutes to separate the membrane into two pieces, then soaked in 20% ethanol for 20 minutes, and finally soaked in the buffer used for dialysis for 20 minutes.
3. Preparation of plasma: the frozen plasma was quickly thawed at room temperature, then the plasma was centrifuged at 3,220 g at 4° C. for 10 min to remove clots, and the supernatant was collected into a new centrifuge tube. The pH of the plasma was measured and recorded, and the plasma with pH of 7-8 was used.
3. Preparation of compound-containing plasma samples: 10 mM stock solution of compounds of the present invention or positive control compounds were diluted with DMSO to obtain 200 µM working solution. […]
The peak areas of the compounds on the buffer side and the plasma side were determined. […]
All the data was calculated by the Microsoft Excel software. The plasma protein binding rate values of the compounds of the present invention were calculated.

[3] = test system: MCF7 cells; experiment: Inhibition of the proliferation of MCF7 cells (CellTiter-Glo); type: cell-based; details: Homo sapiens, MCF7, 168 h; 7 days treatment; read-out: MCF-7 cell proliferation inhibition IC50
Description: The purpose of the experiment is to determine the inhibitory effect of the compounds of the present invention on the proliferation of MCF7 cells in vitro, and to evaluate the activity of the compounds according to IC50 and maximum inhibitory efficiency.
MCF7 cells (ATCC, HTB-22) were cultured in DMEM (Gibco, 11995-065) complete medium containing 10% fetal bovine serum. On the first day of the experiment, MCF7 cells were inoculated in a 384-well plate at a density of 500 cells/well using the complete medium, and cultured in a 37° C., 5% CO2 cell incubator overnight. The next day, the compounds to be tested were added for drug treatment, and the compound solution with a stock concentration of 10 mM was diluted with Echo550 (Labcyte Inc.) and transferred to each cell culture well. Each compound with the starting concentration for treatment of 100 nM in cells was subjected to 3-fold gradient dilution with 9 concentration points. A blank control containing 0.3% DMSO was set, and double replicate wells as controls were set at each concentration point. The culture was cultured in a 37° C., 5% CO2 cell incubator for 7 days, and the cell culture plate was taken out on day 8.

Row | SMILES | solubility at 2 h [1] [µM] | fraction unbound at 6 h, 1 µM [2] | IC50 [3] [nM]
1 | C[C@@H]1Cc2c([nH]c3ccccc23)C(c2c(F)cc(N[C@H]3CCN(CCCF)C3)cc2F)N1CC(F)(F)F (stereo in doubt) [Example 4, (S)-N-(3,5-difluoro-4-((1S,3R)-3-methyl-2-(2,2,2-trifluoroethyl)-2,3,4,9-tetrahydro-1H-pyridino[3,4-b]indol-1-yl)phenyl)-1-(3-fluoropropyl)pyrrolidin-3-amine] | < 0.3 | 0.002 | 0.23
2 | C[C@@H]1Cc2c([nH]c3ccccc23)C(c2c(F)cc(N[C@H]3CCN(CCCF)C3)cc2F)N1CC(F)(F)CO (stereo in doubt) [Example 7, 3-((1S,3R)-1-(2,6-difluoro-4-(((S)-1-(3-fluoropropyl)pyrrolidin-3-yl)amino)phenyl)-3-methyl-3,4-dihydro-1H-pyridino [3,4-b]indole-2(9H)-yl)-2,2-difluoropropane-1-ol] | 4 (≈ 2.15 µg/mL) | 0.023 | 0.12
3 | C[C@@H]1Cc2c([nH]c3ccccc23)[C@@H](c2ccc(N[C@H]3CCN(CCCF)C3)cn2)N1CC(F)(F)F [Example 3, N-((S)-1-(3-fluoropropyl)pyrrolidin-3-yl)-6-((1S,3R)-3-methyl-2-(2,2,2-trifluoroethyl)-2,3,4,9-tetrahydro-1H-pyridino[3,4-b]indol-1-yl)pyridine-3-amine] | 92 (≈ 45 µg/mL) | 0.022 | 0.27
